From ChEMBL document CHEMBL4184084, “Discovery of Mcl-1 inhibitors based on a thiazolidine-2,4-dione scaffold” (Bioorg Med Chem Lett, 2018)

biological target: Induced myeloid leukemia cell differentiation protein Mcl-1 (Homo sapiens, UniProt Q07820); experiment: Inhibition of FITC-labeled Bak-BH3 peptide binding to MCL1 (172 to 371 residues) (unknown origin) by fluorescence polarization competition assay
Sequence (Q07820 whole entry, the tested form may be a part): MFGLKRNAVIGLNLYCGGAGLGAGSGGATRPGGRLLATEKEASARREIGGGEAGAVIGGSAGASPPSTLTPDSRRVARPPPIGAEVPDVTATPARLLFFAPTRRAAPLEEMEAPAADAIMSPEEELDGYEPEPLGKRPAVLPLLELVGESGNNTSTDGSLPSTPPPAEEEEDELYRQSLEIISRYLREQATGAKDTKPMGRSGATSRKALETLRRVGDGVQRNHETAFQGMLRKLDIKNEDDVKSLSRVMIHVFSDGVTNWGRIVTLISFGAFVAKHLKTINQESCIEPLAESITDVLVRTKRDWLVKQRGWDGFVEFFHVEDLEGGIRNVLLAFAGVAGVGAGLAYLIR

| SMILES | Ki |
| --- | --- |
| Cc1cc(Oc2ccc(/C=C3\SC(=O)N([C@@H](CC(C)C)C(=O)O)C3=O)cc2)cc(C)c1Cl | 419 nM |
| CC(C)C[C@@H](C(=O)O)N1C(=O)S/C(=C\c2ccc(Oc3ccccc3)cc2)C1=O | 12700 nM |
| COC(=O)[C@H](CC(C)C)N1C(=O)S/C(=C\c2ccc(Oc3cc(C)c(Cl)c(C)c3)cc2)C1=O | > 100000 nM |
| Cc1cc(Oc2ccc(/C=C3\SC(=O)N([C@H](CC(C)C)C(=O)O)C3=O)cc2)cc(C)c1Cl | 1000 nM |
| Cc1cc(Oc2ccc(/C=C3\SC(=O)N([C@H](C)C(=O)O)C3=O)cc2)cc(C)c1Cl | 2780 nM |
| Cc1cc(Oc2ccc(CC3SC(=O)N(CC(=O)O)C3=O)cc2)cc(C)c1Cl (configuration not stated) | 10200 nM |
| Cc1cc(Oc2ccc(/C=C3\SC(=O)N([C@H](C(=O)O)C(C)C)C3=O)cc2)cc(C)c1Cl | 1190 nM |
| CC(C)C[C@@H](C(=O)O)N1C(=O)S/C(=C\c2ccccc2)C1=O | > 100000 nM |
| CC(C)C[C@@H](C(=O)O)N1C(=O)S/C(=C\c2ccc(C(C)(C)C)cc2)C1=O | 2220 nM |
| CC(C)C[C@@H](C(=O)O)N1C(=O)S/C(=C\c2ccc(Br)cc2)C1=O | 8780 nM |
| CC(C)C[C@@H](C(=O)O)N1C(=O)S/C(=C\c2ccc(O)cc2)C1=O | > 100000 nM |
| Cc1cc(Oc2ccc(/C=C3\SC(=O)N([C@@H](Cc4ccccc4)C(=O)O)C3=O)cc2)cc(C)c1Cl | 155 nM |
| CC(C)(C)c1ccc(/C=C2\SC(=O)N([C@@H](Cc3ccccc3)C(=O)O)C2=O)cc1 | 845 nM |
| Cc1cc(Oc2ccc(/C=C3\SC(=O)N([C@@H](CC(C)C)C(N)=O)C3=O)cc2)cc(C)c1Cl | > 100000 nM |
| O=C(O)[C@H](Cc1ccccc1)N1C(=O)S/C(=C\c2cccc(Br)c2)C1=O | 290 nM |
| Cc1cc(Oc2ccc(/C=C3\SC(=O)N([C@H](Cc4ccccc4)C(=O)O)C3=O)cc2)cc(C)c1Cl | 878 nM |
| Cc1cc(Oc2ccc(/C=C3\SC(=O)N([C@@H](CC(C)C)C(=O)O)C3=O)cc2Br)cc(C)c1Cl | 791 nM |
| Cc1cc(Oc2ccc(/C=C3\SC(=O)NC3=O)cc2)cc(C)c1Cl | > 100000 nM |
| Cc1cc(Oc2ccc(/C=C3\SC(=O)N([C@@H](C)C(=O)O)C3=O)cc2)cc(C)c1Cl | 1940 nM |
| CC(C)C[C@@H](C(=O)O)N1C(=O)S/C(=C\c2cccc(Br)c2)C1=O | 2130 nM |
| Cc1cc(Oc2ccc(/C=C3\SC(=O)N(CC(=O)O)C3=O)cc2)cc(C)c1Cl | 2340 nM |

biological target: Bcl-2-like protein 1 (Homo sapiens, UniProt Q07817); experiment: Inhibition of FITC-labeled Bak-BH3 peptide binding to Bcl-XL (2 to 212 residues) (unknown origin) by fluorescence polarization assay
Sequence (Q07817 whole entry, the tested form may be a part): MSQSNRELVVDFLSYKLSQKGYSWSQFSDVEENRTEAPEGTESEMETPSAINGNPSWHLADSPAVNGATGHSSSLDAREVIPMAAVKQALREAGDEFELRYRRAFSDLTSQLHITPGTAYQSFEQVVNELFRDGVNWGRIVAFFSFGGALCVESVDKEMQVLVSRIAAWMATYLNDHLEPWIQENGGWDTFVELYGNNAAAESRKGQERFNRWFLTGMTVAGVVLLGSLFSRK

| SMILES | Ki |
| --- | --- |
| Cc1cc(Oc2ccc(/C=C3\SC(=O)N([C@@H](Cc4ccccc4)C(=O)O)C3=O)cc2)cc(C)c1Cl | 90 nM |
